Experimental data reported in the NIST ThermoML archive (doi:10.1016/j.fluid.2019.06.020).
Numbers after ± are expanded uncertainties.

Conditions: Liquid, Closed cell (Static) method

Structure (SMILES) | vapor or sublimation pressure (273.17 K) [kPa] | vapor or sublimation pressure (278.17 K) [kPa] | vapor or sublimation pressure (283.16 K) [kPa] | vapor or sublimation pressure (288.16 K) [kPa] | vapor or sublimation pressure (293.15 K) [kPa] | vapor or sublimation pressure (298.15 K) [kPa] | vapor or sublimation pressure (303.15 K) [kPa] | vapor or sublimation pressure (308.15 K) [kPa] | vapor or sublimation pressure (313.15 K) [kPa] | vapor or sublimation pressure (318.15 K) [kPa] | vapor or sublimation pressure (323.15 K) [kPa] | vapor or sublimation pressure (328.15 K) [kPa] | vapor or sublimation pressure (333.15 K) [kPa] | vapor or sublimation pressure (338.14 K) [kPa] | vapor or sublimation pressure (343.14 K) [kPa] | vapor or sublimation pressure (348.13 K) [kPa] | vapor or sublimation pressure (353.13 K) [kPa] | vapor or sublimation pressure (323.14 K) [kPa] | vapor or sublimation pressure (328.14 K) [kPa] | vapor or sublimation pressure (333.14 K) [kPa]
FCC(F)(F)F [1,1,1,2-tetrafluoroethane] | 294.3 ± 5 | 351.2 ± 5.1 | 415.4 ± 5.1 | 488.2 ± 5.1 | 570.6 ± 5.1 | 664.8 ± 5.2 | 769.2 ± 5.2 | 886 ± 5.3 | 1017.7 ± 5.3 | 1158.1 ± 5.4 | 1317.4 ± 5.5 | 1489.6 ± 5.6 | 1679.7 ± 5.8 | 1889.1 ± 6 | 2118.1 ± 6.2 | 2361.2 ± 6.4 | 2634.6 ± 6.7 |  |  | 
C=CC(F)(F)F [1,1,1-trifluoro-2-propene] | 268.8 ± 5 | 318.4 ± 5 | 373.6 ± 5.1 | 437.6 ± 5.1 | 510 ± 5.1 | 590.1 ± 5.1 | 678.2 ± 5.1 | 776.7 ± 5.2 | 883.6 ± 5.2 | 1001.8 ± 5.3 |  |  |  | 1600.5 ± 5.7 | 1785.7 ± 5.8 | 1986.4 ± 6 | 2203.1 ± 6.2 | 1130.4 ± 5.4 | 1274.9 ± 5.5 | 1431.6 ± 5.6
